Source: article PMC8303886, “Polyphenylglyoxamide-Based Amphiphilic Small Molecular Peptidomimetics as Antibacterial Agents with Anti-Biofilm Activity” (International Journal of Molecular Sciences, 2021)
“And” between values parts separate entries of the source, which are not always exact repeats. Equal values may be shown once. Read-outs that look alike come from different tables or passages of the source.

Columns and labels:
[1] = tested on: S. aureus (SA38); assay: Minimum inhibitory concentration (MIC) assay against S. aureus; format: cell-based, Staphylococcus aureus; conditions: Staphylococcus aureus, S. aureus SA38; read-out: MIC S. aureus
[2] = tested on: S. aureus (SA38); conditions: previously reported, cited from earlier work
[3] = tested on: E. coli (K12); set-up: method as in PMID 32947921; conditions: previously reported, cited from earlier work
[4] = tested on: P. aeruginosa (PAO1); set-up: method as in PMID 32947921; conditions: previously reported, cited from earlier work
[5] = tested on: E. coli (K12); assay: Minimum inhibitory concentration (MIC) assay against E. coli; format: cell-based; conditions: Escherichia coli
[6] = tested on: P. aeruginosa (PAO1); assay: Minimum inhibitory concentration (MIC) assay against P. aeruginosa; format: cell-based; conditions: Pseudomonas aeruginosa
[7] = tested on: pre-established S. aureus biofilms; assay: Disruption of pre-established S. aureus biofilms (crystal violet assay); format: cell-based, Staphylococcus aureus
Experimental: As bacterial biofilms are one of the major challenges in treating bacterial infection, the ability of the synthesised peptidomimetics to disrupt pre-established biofilms was investigated.
(§1) Bacterial cultures (S. aureus and E. coli) were cultured in MHB at 37 °C with shaking at 120 rpm for 24 h. The resulting bacterial culture was washed twice with MHB with centrifugation after each wash. The bacterial solution was then diluted with fresh MHB to a turbidity of OD660 = 0.1 in MHB (equivalent to 10^8 colony forming unit (CFU)/mL of bacteria), followed by diluting to 10^6 CFU/mL in MHB. A total of 200 µL of the bacterial solution was dispensed to wells in a flat-bottom 96-well plate (Costar). The biofilm was then grown in the plate at 37 °C for 24 h. After incubation, loosely bound cells were washed away with 1× phosphate-buffered saline (PBS, pH 7.4). The biofilms were then supplemented with different concentrations of peptidomimetics dissolved in DMSO and incubated at 37 °C with shaking at 120 rpm for a further 24 h. Biofilms adhered on the plate substratum were quantified, using crystal violet staining as described previously. The experiment was performed in triplicate.

[8] = tested on: pre-established E. coli biofilms; assay: Disruption of pre-established E. coli biofilms (crystal violet assay); format: cell-based, Escherichia coli
Experimental: as §1

[9] = tested on: MRC-5 normal human lung fibroblasts; assay: MTT cytotoxicity assay; format: cell-based; conditions: Homo sapiens, MRC5, 72 h, 72 h drug incubation, read-out: IC50 against MRC-5 normal human lung fibroblasts
Experimental: The IC50 values of the tested peptidomimetics were determined from a dose-response curve. […] The therapeutic indices for each tested peptidomimetic against Gram-positive S. aureus and Gram-negative E. coli were calculated by dividing the IC50 value against human cells by the corresponding MIC value (Table 2).
The toxicity of the peptidomimetics against normal human lung fibroblasts MRC-5 cells was measured, using an MTT (3-(4,5-dimethylthiazol-2-yl)-2,5-diphenyltetrazolium bromide) (Sigma Aldrich, St. Louis, MO, USA) colorimetric assay. The cells were cultured in minimal essential medium (MEM, Invitrogen) containing 10% foetal bovine serum (FBS). The cells were maintained at 37 °C in 5% CO2 as an adherent monolayer and was passaged upon reaching confluence by standard cell culture techniques. MRC-5 cells were seeded at 5000 cells/well in 96-well plates to ensure full confluence (quiescence) and left overnight to adhere to the plate wells. The adherent cells were treated with 1–500 μM of compounds by dissolving in DMSO and serially diluting with media. TY-01 was used as the positive control. The final concentration of DMSO was 0.5% (v/v). After the 72 h drug incubation, […] stock MTT solution (5 mg/mL) was added, and the cells were incubated for another 3.5–4 h. The MTT solution containing media was carefully aspirated without displacing the purple crystals from the bottom, and […] acid-isopropanol was added to all wells and mixed slowly by shaking with an orbital shaker to dissolve the dark blue crystals. […] The determination of IC50 values was performed using GraphPad Prism 7 (GraphPad, San Diego, CA, USA). Each experiment was performed in triplicate and was repeated in three independent experiments.

[10] = tested on: S. aureus cytoplasmic membrane; assay: Cytoplasmic membrane permeability assay (diSC3-5 dye release); format: cell-based, Staphylococcus aureus; conditions: 1× and 2× MIC, read up to 15 min
Source text: This dye readily partitions into and aggregates in bacterial cell membranes, quenching its own fluorescence. However, structural damage to the bacterial cell membrane causes a loss in the membrane potential, which results in the leakage of dye from the bacterial cell membrane into the medium and an increase in fluorescence intensity. By detecting changes in fluorescence intensity, the integrity of the bacterial cytoplasmic membrane can be monitored.
Membrane potential sensitive dye diSC3–5 (3,3′-dipropylthiadicarbocyanine iodide), which penetrates inside bacterial cells depending on the membrane potential gradient of the cytoplasmic membrane, was used to determine the bacterial cytoplasmic membrane permeability following the procedure previously described with slight modification. Bacteria (S. aureus) were incubated in MHB with shaking at 37 °C for 16 h. After incubation, the bacteria were washed with 5 mM HEPES, supplemented with 20 mM glucose at pH 7.2 and diluted in the same buffer to an OD600 0.05–0.06 (equivalent to a final concentration of 10^7 CFU/mL bacteria). The diSC3–5 dye was added at 4 μM to the bacterial suspension. […] Fluorescence due to the release of dye was measured with a FLUOstar Omega (BMG Labtech) microplate reader at 5 min intervals at an excitation wavelength of 621 nm and an emission wavelength of 670 nm.

[11] = highest concentration tested 250 μM
[12] = 4× MIC, 24 h treatment (32 μM for 17c)

| SMILES | MIC [1] | melting point [°C] | MIC [5] | MIC [6, 11] [µM] | disruption of pre-established S. aureus biofilms ([7]; 1× MIC, 24 h treatment) | IC50 [9] | other results |
| --- | --- | --- | --- | --- | --- | --- | --- |
| CCCCCCCCS(=O)(=O)Nc1ccc(-c2ccccc2)cc1C(=O)C(=O)NCCC[N+](C)(C)C [Compound 16c] |  |  |  |  |  |  | MIC S. aureus ([2]; listed as 2, 16c): 16 μM and 10 μg/mL; MIC S. aureus ([2]; listed as 2): 16 µM; MIC S. aureus [2]: 10 µg/mL; MIC E. coli ([3]; listed as 2, 16c): 32 μM and 21 μg/mL; MIC E. coli ([3]; listed as 2): 32 µM; MIC P. aeruginosa ([4]; listed as 2, 16c): 125 μM and 80 μg/mL; MIC P. aeruginosa [4]: 125 μM and 80 μg/mL |
| CCCCCCCCS(=O)(=O)Nc1ccc(-c2ccccc2)cc1C(=O)C(=O)NCCCNC(=N)N [Compound 33c] |  |  |  |  |  |  | MIC S. aureus [2]: 8 μM and 4.4 μg/mL; MIC E. coli [3]: 63 μM and 35 μg/mL; MIC P. aeruginosa [4]: 63 μM and 35 μg/mL |
| CCCCCCCCS(=O)(=O)Nc1ccc(-c2ccc(-c3ccccc3)cc2)cc1C(=O)C(=O)NCCCNC(=N)N.Cl [Compound 33d, N-(3-Guanidinopropyl)-2-(4-(octylsulfonamido)-[1,1′:4′,1″-terphenyl]-3-yl)-2-oxoacetamide hydrochloride] | 16 µM and 10 µg/mL | 49.6 to 50.1 |  |  |  | 16.9 µM and 10.6 µg/mL |  |
| CCCCCCCCCCCCS(=O)(=O)Nc1ccccc1C(=O)C(=O)NCCCNC(=N)N.Cl [Compound 34a, 2-(2-(Dodecylsulfonamido)phenyl)-N-(3-guanidinopropyl)-2-oxoacetamide hydrochloride] | 8 µM and 4.3 µg/mL | 70 to 72.8 | 16 µM and 8.5 µg/mL | > 250 | 20–36% | 27.2 µM and 14.5 µg/mL | MIC [6]: > 133 µg/mL; disruption of pre-established S. aureus biofilms [7, 12]: 42%; disruption of pre-established E. coli biofilms ([8]; 1× and 2× MIC, 24 h treatment): unable to disrupt any pre-established E. coli biofilms; S. aureus cytoplasmic membrane disruption (increase in fluorescence intensity) [10]: most active compound at 2× MIC |
| CCCCCCCCCCCCS(=O)(=O)Nc1ccc(Br)cc1C(=O)C(=O)NCCCNC(=N)N.Cl [Compound 34b, 2-(5-Bromo-2-(dodecylsulfonamido)phenyl)-N-(3-guanidinopropyl)-2-oxoacetamide hydrochloride] | 16 µM and 9.8 µg/mL | 50 to 50.1 | > 250 µM and > 153 µg/mL | > 250 | 20–36% and 36% | 21.1 µM and 14.8 µg/mL | MIC [6]: > 153 µg/mL; disruption of pre-established S. aureus biofilms [7, 12]: 42% |

More lines, main results first:

| MIC [1] | melting point [°C] | MIC [5] | MIC [6, 11] [µM] | SMILES | disruption of pre-established S. aureus biofilms ([7]; 1× MIC, 24 h treatment) | IC50 [9] | other results |
| --- | --- | --- | --- | --- | --- | --- | --- |
| > 250 µM and > 153 µg/mL | 76.7 to 79.4 |  |  | CCCCCCCCCCCCCCCCS(=O)(=O)Nc1ccc(-c2ccccc2)cc1C(=O)C(=O)NCCCN(C)C [Compound 12c, N-(3-(Dimethylamino)propyl)-2-(4-(hexadecylsulfonamido)-[1,1′-biphenyl]-3-yl)-2-oxoacetamide] |  |  |  |
| 8 µM and 5.6 µg/mL |  | 32 µM and 22 µg/mL | > 250 | CCCCCCCCCCCCS(=O)(=O)Nc1ccc(Br)cc1C(=O)C(=O)NCCC[N+](C)(C)C.[I-] [Compound 17b, 3-(2-(5-Bromo-2-(dodecylsulfonamido)phenyl)-2-oxoacetamido)-N,N,N-trimethylpropan-1-aminium iodide] | 20–36% | 18.3 µM and 12.9 µg/mL | MIC [6]: > 176 µg/mL; disruption of pre-established S. aureus biofilms [7, 12]: 38%; disruption of pre-established E. coli biofilms ([8]; 2× MIC, 24 h treatment (64 μM for 17c)): 31% |
| 8 µM and 5.4 µg/mL |  | > 250 µM | > 250 | CCCCCCCCCCCCCCCCS(=O)(=O)Nc1ccccc1C(=O)C(=O)NCCC[N+](C)(C)C.[I-] [Compound 18a, 3-(2-(2-(Hexadecylsulfonamido)phenyl)-2-oxoacetamido)-N,N,N-trimethylpropan-1-aminium iodide] | 20–36% | 52.4 µM and 35.6 µg/mL |  |
| 32 µM and 19 µg/mL | 73.2 to 73.5 |  |  | CCCCCCCCCCCCS(=O)(=O)Nc1ccc(-c2ccccc2)cc1C(=O)C(=O)NCCCNC(=N)N.Cl [Compound 34c, 2-(4-(Dodecylsulfonamido)-[1,1′-biphenyl]-3-yl)-N-(3-guanidinopropyl)-2-oxoacetamide hydrochloride] |  |  |  |
| > 250 µM and > 167 µg/mL | 64.3 to 66.6 |  |  | CCCCCCCCCCCCCCCCS(=O)(=O)Nc1ccc(Br)cc1C(=O)C(=O)NCCCNC(=N)N.Cl [Compound 35b, 2-(5-Bromo-2-(hexadecylsulfonamido)phenyl)-N-(3-guanidinopropyl)-2-oxoacetamide hydrochloride] |  |  |  |
| > 250 µM and > 166 µg/mL | 74.5 to 77.1 |  |  | CCCCCCCCCCCCCCCCS(=O)(=O)Nc1ccc(-c2ccccc2)cc1C(=O)C(=O)NCCCNC(=N)N.Cl [Compound 35c, N-(3-Guanidinopropyl)-2-(4-(hexadecylsulfonamido)-[1,1′-biphenyl]-3-yl)-2-oxoacetamide hydrochloride] |  |  |  |
